Data reported in US20240246920A1, “TRIAZOLE DERIVATIVES WITH ANTIFUNGAL ACTIVITY” (King's College London, priority 2020, published 2024).
Values after ≈ are worked out from the molar mass of the structure shown. Read-outs that look alike come from different tables or passages of the source.

Key:
C. albicans NCPF3281 = assay: Candida panel MIC, serial dilution in 96-well plates; assay type: cell-based, Candida albicans
Outline: (§1)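 Broth microdilution in RPMI 1640/MOPS/2% glucose, pH 7.0, compound serially diluted from 128 to 0.25 μg/mL. Inoculum 0.5-5×10^5/mL from overnight 37 °C cultures; plates incubated 24 h at 37 °C. Growth read at OD530; MIC is lowest concentration giving ≥50% inhibition versus drug-free growth control.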

C. parapsilosis NCPF3209 = assay: microbe, parasite or virus in culture; assay type: cell-based, Candida parapsilosis; settings: Lodderomyces parapsilosis
Outline: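 MIC taken as lowest concentration inhibiting growth ≥50% relative to drug-free control, from OD530 after 24 hours at 37° C. Fungi at 0.5-5×10^5/mL were exposed to serially diluted compound in RPMI 1640/MOPS/2% glucose medium adjusted to pH 7.0.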

Candida auris TDG2506 = assay: microbe, parasite or virus in culture; assay type: cell-based; settings: Candidozyma auris
Outline: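 MIC is the lowest concentration inhibiting growth by ≥50% relative to the drug-free control, read at OD530 nm after 24 hours at 37° C. Fungi were seeded at 0.5-5×10^5/mL in MOPS-buffered RPMI 1640 with 2% glucose, pH 7.0; compounds came from DMSO solutions diluted in media.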

C. auris TDG1912 = assay: Candida panel MIC, serial dilution in 96-well plates; assay type: cell-based; settings: Candidozyma auris, TDG1912; Table 4; 24 hours, ≥50% inhibition; read-out: MIC C. auris TDG1912
Outline: as §1

C. tropicalis NCPF8760 = assay: as above; assay type: cell-based
Outline: as §1

Candida auris TDG1102 = assay: as above; assay type: cell-based; settings: Candidozyma auris, TDG1102; Table 4, extended panel; 24 hours, ≥50% inhibition; read-out: MIC Candida auris TDG1102
Outline: as §1

Candida auris TDG2512 = assay: as above; assay type: cell-based; settings: Candidozyma auris, TDG2512; Table 4, extended panel; 24 hours, ≥50% inhibition; read-out: MIC Candida auris TDG2512
Outline: as §1

C. albicans 3363 = assay: Candida albicans panel MIC; assay type: cell-based; settings: Table 6, Candida albicans panel
Outline: (§2)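 Broth microdilution in RPMI 1640/MOPS/2% glucose, pH 7.0, compound 128–0.25 μg/mL, inoculum 0.5–5×10^5/mL. Plates held at 37 °C for 24 h and growth read at OD530. MIC is the lowest concentration giving ≥50% inhibition versus drug-free control.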

C. albicans 3645 = assay: Candida albicans panel MIC; assay type: cell-based; settings: Table 6, Candida albicans panel
Outline: as §2

C. albicans 3880 = assay: Candida albicans panel MIC; assay type: cell-based; settings: Table 6, Candida albicans panel
Outline: as §2

C. albicans 3881 = assay: Candida albicans panel MIC; assay type: cell-based; settings: Table 6, Candida albicans panel
Outline: as §2

C. albicans 3882 = assay: Candida albicans panel MIC; assay type: cell-based; settings: Table 6, Candida albicans panel
Outline: as §2

C. albicans 3990 = assay: Candida albicans panel MIC; assay type: cell-based; settings: Table 6, Candida albicans panel
Outline: as §2

C. albicans 8112 = assay: Candida albicans panel MIC; assay type: cell-based; settings: Table 6, Candida albicans panel
Outline: as §2

[1] = test system: Aspergillus carbonarius ATCC 8740; assay: Aspergillus panel MIC; assay type: cell-based; settings: Table 8
Description: (§3) Starter cultures of fungal strains to be tested were grown in 3 mL of RPMI 2% glucose media incubated at 37° C. with shaking at 200 rpm overnight. The culture media used was 900 mL H2O; 10.4 g RPMI 1640 (with L-glutamine and a pH indicator but without bicarbonate); 34.5 g MOPS and 18 g glucose. The pH of the media was adjusted to 7.0 with 1 M sodium hydroxide.
(§4) Solutions of the compound to be tested were prepared by dissolving the compound in DMSO and subsequently into media to the desired concentrations. 200 μL of compound solution was then added to the wells of the 96-well plate using a serial dilution method row-by row of the plate to give a compound concentration gradient across the plate of from 128 μg/mL to 0.25 μg/mL. The last two rows of each plate were control rows containing the culture media alone and the media plus fungi.
(§5) The fungi starter cultures were diluted 1:10 in water in cuvettes. This was then further diluted to an optical density (OD600) of 0.01 in media. 100 μL of the fungi was added to each well giving a starting concentration of fungus of 0.5-5×10^5/mL. One species of fungus was used on each plate. The plates were then held at 37° C. for 24 hours.
(§6) A plate reader was used to measure growth in each well at OD530 nm and the MIC was determined for each test compound. The MIC is defined as the lowest concentration giving rise to inhibition of ≥50% of that of the drug-free control well containing the fungus and media.
(§7) The compound of Example 2 (which corresponds to compound number 2) was tested against a panel of Aspergillus strains using a method analogous to that described above for the Candida Panel.

[2] = test system: Aspergillus fulavus ATCC 204304; assay: Aspergillus panel MIC; assay type: cell-based; settings: Table 8
Description: as §3, §4, §5, §6, §7

[3] = test system: Aspergillus fumigatus ATCC 1028; assay: Aspergillus panel MIC; assay type: cell-based; settings: Table 8
Description: as §3, §4, §5, §6, §7

[4] = test system: Aspergillus fumigatus ATCC 10894; assay: Aspergillus panel MIC; assay type: cell-based; settings: Table 8
Description: as §3, §4, §5, §6, §7

[5] = test system: Aspergillus fumigatus ATCC 13073; assay: Aspergillus panel MIC; assay type: cell-based; settings: Table 8
Description: as §3, §4, §5, §6, §7

[6] = test system: Aspergillus fumigatus ATCC 16424; assay: Aspergillus panel MIC; assay type: cell-based; settings: Table 8
Description: as §3, §4, §5, §6, §7

[7] = test system: Aspergillus fumigatus ATCC 204305; assay: Aspergillus panel MIC; assay type: cell-based; settings: Table 8
Description: as §3, §4, §5, §6, §7

C. auris strain TDG1912 = assay: Galleria mellonella infection model, larval survival; assay type: in vivo; settings: G. mellonella infected with C. auris TDG1912; survival over 120 hours
Description: The effects of test compounds in-vivo was assessed using a Galleria mellonella infection model.
G. mellonella were injected in a proleg with 10 μL of C. auris strain TDG1912 (OD4) at a concentration of 1×10^6 cfu/10 μL using a Hamilton syringe and left for 30 minutes to recover from injection and to allow infection to begin. The G. mellonella were then injected with 10 μL of the compound of the invention at either 50 mg/kg (10% DMSO) or 20 mg/kg (4% DMSO) or PBS containing 10% DMSO as an infection-only control. 10 larvae were selected for each treatment, and the experiment was repeated 3 times for the test compound and fluconazole. Survival of larvae was monitored for a 5 day period and results are presented as % survival over 120 hours (see FIG. 1).

`OC(Cn1cncn1)(Cn1cncn1)c1ccc(F)cc1F` [Fluconazole, fluconazole, reference compound] gave an MIC (C. albicans NCPF3281; Candida albicans, NCPF3281, read-out: MIC Fluconazole, C. albicans 3281) of over 128 µg/mL, an MIC (C. albicans NCPF3281; Candida albicans, NCPF3281, Table 4, common panel, 24 hours, ≥50% inhibition, read-out: MIC C. albicans NCPF3281) of at most 0.125 µg/mL and an MIC (C. albicans NCPF3281; NCPF3281, Table 6, Candida albicans panel, read-out: MIC C. albicans NCPF3281) of at most 0.125 µg/mL. The MIC (C. parapsilosis NCPF3209; NCPF3209, read-out: MIC C. Parapsilosis NCPF3209) was at most 0.25 µg/mL, the MIC (C. parapsilosis NCPF3209; NCPF3209, read-out: MIC Fluconazole, C. parapsilosis 3209) was 0.5 µg/mL (≈ 1.63 µM) and the MIC (C. parapsilosis NCPF3209; NCPF3209, Table 4, common panel, 24 hours, ≥50% inhibition, read-out: MIC C. parapsilosis NCPF3209) was at most 0.25 µg/mL. It also gave an MIC (Candida auris TDG2506; TDG2506, read-out: MIC C. auris 2506) of over 128 µg/mL, an MIC (Candida auris TDG2506; TDG2506, Table 4, extended panel, 24 hours, ≥50% inhibition, read-out: MIC Candida auris TDG2506) of over 128 µg/mL and an MIC (C. auris TDG1912) of over 128 µg/mL. The MIC (C. tropicalis NCPF8760; NCPF8760, Table 4, common panel, 24 hours, ≥50% inhibition, read-out: MIC C. tropicalis NCPF8760) was 4 to 8 µg/mL (≈ 13.1 to 26.1 µM), the MIC (C. tropicalis NCPF8760; NCPF8760, read-out: MIC C. Tropicalis NCPF8760) was 4 to 8 µg/mL (≈ 13.1 to 26.1 µM) and the MIC (Candida auris TDG1102) was 64 µg/mL (≈ 209 µM). The MIC (Candida auris TDG2512) was 16 µg/mL (≈ 52.2 µM), the MIC (C. albicans 3363) was 8 µg/mL (≈ 26.1 µM) and the MIC (C. albicans 3645) was at most 0.125 µg/mL. It also gave an MIC (C. albicans 3880) of 16 µg/mL (≈ 52.2 µM), an MIC (C. albicans 3881) of 8 µg/mL (≈ 26.1 µM) and an MIC (C. albicans 3882) of 16 µg/mL (≈ 52.2 µM). The MIC (C. albicans 3990) was 8 µg/mL (≈ 26.1 µM), the MIC (C. albicans 8112) was 0.125 µg/mL (≈ 0.408 µM) and the “Minimum inhibitory concentration Aspergillus carbonarius ATCC 8740” value [1] was over 64. For the same compound, the “Minimum inhibitory concentration Aspergillus fulavus ATCC 204304” value [2] was over 64, the “Minimum inhibitory concentration Aspergillus fumigatus ATCC 1028” value [3] was over 64 and the “Minimum inhibitory concentration Aspergillus fumigatus ATCC 10894” value [4] was over 64. The “Minimum inhibitory concentration Aspergillus fumigatus ATCC 13073” value [5] was over 64, the “Minimum inhibitory concentration Aspergillus fumigatus ATCC 16424” value [6] was over 64 and the “Minimum inhibitory concentration Aspergillus fumigatus ATCC 204305” value [7] was over 64. The “Protection against multi-drug resistant C. auris (larval survival)” value (C. auris strain TDG1912) was “no significant effect”.
